Test results as given in patent EP3928779A1 (Chugai Seiyaku Kabushiki Kaisha, priority 2014, dated 2016).

System: rat small-intestinal brush border membrane vesicles
Test: Inhibitory effect on 33PO4 uptake into rat small-intestinal brush border membrane vesicles (rapid filtration method)
Type: biochemical
Settings: 33PO4 uptake into rat small-intestinal BBMVs; test compound 1 µM; reacted for 60 seconds
Outline: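 Uptake of ^33PO4 was measured by rapid filtration and liquid scintillation counting of filter-retained vesicles, after quenching with ice-cold 110 mM NaCl/1 mM KH2PO4/10 mM HEPES pH 7.5. Vesicles were brush border membranes from the upper small intestine of female Wistar rats aged 4–5 weeks.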

CN1N(Cc2ccc(OCCN3CCN(CCO)CC3)c(F)c2F)C(=O)C(C(=O)Nc2ccc(C(F)(F)F)cc2-c2cc(C(F)(F)F)ncn2)=C(O)C12CCCC2 [Example 376]
Rate of uptake inhibition (%) (1 µM): 33%

COCCN1CCN(CCOc2ccc(CN3C(=O)C(C(=O)Nc4ccc(C(F)(F)F)cc4-c4cc(C(F)(F)F)ncn4)=C(O)C4(CCCC4)N3C)c(F)c2F)CC1 [Example 377]
Rate of uptake inhibition (%) (1 µM): 29%

CN1N(Cc2ccc(OCCN3CCN(CCOCCO)CC3)c(F)c2F)C(=O)C(C(=O)Nc2ccc(C(F)(F)F)cc2-c2cc(C(F)(F)F)ncn2)=C(O)C12CCCC2 [Example 378]
Rate of uptake inhibition (%) (1 µM): 35%

CN1N(Cc2ccc(OCCN3CCN(S(C)(=O)=O)CC3)c(F)c2F)C(=O)C(C(=O)Nc2ccc(C(F)(F)F)cc2-c2cc(C(F)(F)F)ncn2)=C(O)C12CCCC2 [Example 379]
Rate of uptake inhibition (%) (1 µM): 37%

CN1N(Cc2ccc(OCCN3[C@@H]4COC[C@H]3C4)c(F)c2F)C(=O)C(C(=O)Nc2ccc(C(F)(F)F)cc2-c2cc(C(F)(F)F)ncn2)=C(O)C12CCCC2 [Example 380]
Rate of uptake inhibition (%) (1 µM): 43%

CN1N(Cc2ccc(OCCN[C@@H](CC(=O)O)C(=O)O)c(F)c2F)C(=O)C(C(=O)Nc2ccc(C(F)(F)F)cc2-c2cc(C(F)(F)F)ncn2)=C(O)C12CCCC2 [Example 381, (2S)-2-[2-[2,3-Difluoro-4-[[10-hydroxy-6-methyl-8-oxo-9-[[4-trifluoromethyl-2-[6-(trifluoromethyl)pyrimidin-4-yl]phenyl]carbamoyl]-6,7-diazaspiro[4.5]dec-9-en-7-yl]methyl]phenoxy]ethylamino]butanedioate]
Rate of uptake inhibition (%) (1 µM): 28%

CN1N(Cc2ccc(OCCNC(CC(=O)O)CC(=O)O)c(F)c2F)C(=O)C(C(=O)Nc2ccc(C(F)(F)F)cc2-c2cc(C(F)(F)F)ncn2)=C(O)C12CCCC2 [Example 382, 3-[2-[2.3-Difluoro-4-[[10-hydroxy-6-methyl-8-oxo-9-[[4-(trifluoromethyl)-2-[6-(trifluoromethyl)pyrimidin-4-yl]phenyl]carbamoyl]-6,7-diazaspiro[4.5]dee-9-en-7-yl)methyl]phenoxy]ethylamino]pentanedioate]
Rate of uptake inhibition (%) (1 µM): 21%

CN1N(Cc2ccc(OCCCOC[C@H](O)CO)c(F)c2F)C(=O)C(C(=O)Nc2ccc(C(F)(F)F)cc2-c2ccc(C(F)(F)F)nc2)=C(O)C12CCC2 [Example 383]
Rate of uptake inhibition (%) (1 µM): 26%

CN1N(Cc2ccc(OCCCCOC[C@H](O)CO)c(F)c2F)C(=O)C(C(=O)Nc2ccc(C(F)(F)F)cc2-c2ccc(C(F)(F)F)nc2)=C(O)C12CCC2 [Example 384]
Rate of uptake inhibition (%) (1 µM): 39%

CN1N(Cc2ccc(OCCCCCOC[C@H](O)CO)c(F)c2F)C(=O)C(C(=O)Nc2ccc(C(F)(F)F)cc2-c2ccc(C(F)(F)F)nc2)=C(O)C12CCC2 [Example 385]
Rate of uptake inhibition (%) (1 µM): 39%

CN1N(Cc2ccc(OCCCOC[C@H](O)CO)c(F)c2F)C(=O)C(C(=O)Nc2ccc(C(F)(F)F)cc2-c2ccc(C(F)(F)F)nc2)=C(O)C12CCCC2 [Example 386]
Rate of uptake inhibition (%) (1 µM): 36%

CN1N(Cc2ccc(OCCCCOC[C@H](O)CO)c(F)c2F)C(=O)C(C(=O)Nc2ccc(C(F)(F)F)cc2-c2ccc(C(F)(F)F)nc2)=C(O)C12CCCC2 [Example 387]
Rate of uptake inhibition (%) (1 µM): 23%

CN1N(Cc2ccc(OCCCCCOC[C@H](O)CO)c(F)c2F)C(=O)C(C(=O)Nc2ccc(C(F)(F)F)cc2-c2ccc(C(F)(F)F)nc2)=C(O)C12CCCC2 [Example 388]
Rate of uptake inhibition (%) (1 µM): 15%

CN1N(Cc2ccc(OCCCOC[C@H](O)CO)c(F)c2F)C(=O)C(C(=O)Nc2ccc(C(F)(F)F)cc2-c2cc(C(F)(F)F)ncn2)=C(O)C12CCC2 [Example 389]
Rate of uptake inhibition (%) (1 µM): 29%

CN1N(Cc2ccc(OCCCCOC[C@H](O)CO)c(F)c2F)C(=O)C(C(=O)Nc2ccc(C(F)(F)F)cc2-c2cc(C(F)(F)F)ncn2)=C(O)C12CCC2 [Example 390]
Rate of uptake inhibition (%) (1 µM): 58%

CN1N(Cc2ccc(OCCCCCOC[C@H](O)CO)c(F)c2F)C(=O)C(C(=O)Nc2ccc(C(F)(F)F)cc2-c2cc(C(F)(F)F)ncn2)=C(O)C12CCC2 [Example 391]
Rate of uptake inhibition (%) (1 µM): 42%

CN1N(Cc2ccc(OCCCOC[C@H](O)CO)c(F)c2F)C(=O)C(C(=O)Nc2ccc(C(F)(F)F)cc2-c2cc(C(F)(F)F)ncn2)=C(O)C12CCCC2 [Example 392]
Rate of uptake inhibition (%) (1 µM): 47%

CN1N(Cc2ccc(OCCCCOC[C@H](O)CO)c(F)c2F)C(=O)C(C(=O)Nc2ccc(C(F)(F)F)cc2-c2cc(C(F)(F)F)ncn2)=C(O)C12CCCC2 [Example 393]
Rate of uptake inhibition (%) (1 µM): 45%

CN1N(Cc2ccc(OCCCCCOC[C@H](O)CO)c(F)c2F)C(=O)C(C(=O)Nc2ccc(C(F)(F)F)cc2-c2cc(C(F)(F)F)ncn2)=C(O)C12CCCC2 [Example 394]
Rate of uptake inhibition (%) (1 µM): 45%

CN1N(Cc2ccc(OCCCOCCO)c(F)c2F)C(=O)C(C(=O)Nc2ccc(C(F)(F)F)cc2-c2cc(C(F)(F)F)ncn2)=C(O)C12CCCC2 [Example 395]
Rate of uptake inhibition (%) (1 µM): 39%

CN1N(Cc2ccc(OCCCCOCCO)c(F)c2F)C(=O)C(C(=O)Nc2ccc(C(F)(F)F)cc2-c2cc(C(F)(F)F)ncn2)=C(O)C12CCCC2 [Example 396]
Rate of uptake inhibition (%) (1 µM): 38%

CN1N(Cc2ccc(OCCCCCOCCO)c(F)c2F)C(=O)C(C(=O)Nc2ccc(C(F)(F)F)cc2-c2cc(C(F)(F)F)ncn2)=C(O)C12CCCC2 [Example 397]
Rate of uptake inhibition (%) (1 µM): 40%

CN1N(Cc2ccc(OCCCOCCCO)c(F)c2F)C(=O)C(C(=O)Nc2ccc(C(F)(F)F)cc2-c2cc(C(F)(F)F)ncn2)=C(O)C12CCCC2 [Example 398]
Rate of uptake inhibition (%) (1 µM): 34%

CN1N(Cc2ccc(OCCCCOCCCO)c(F)c2F)C(=O)C(C(=O)Nc2ccc(C(F)(F)F)cc2-c2cc(C(F)(F)F)ncn2)=C(O)C12CCCC2 [Example 399]
Rate of uptake inhibition (%) (1 µM): 42%

CN1N(Cc2ccc(OCCCCCOCCCO)c(F)c2F)C(=O)C(C(=O)Nc2ccc(C(F)(F)F)cc2-c2cc(C(F)(F)F)ncn2)=C(O)C12CCCC2 [Example 400]
Rate of uptake inhibition (%) (1 µM): 36%

COCCOCCOc1ccc(CN2C(=O)C(C(=O)Nc3ccc(C(F)(F)F)cc3-c3cc(C(F)(F)F)ncn3)=C(O)C3(CCC3)N2C)c(F)c1F [Example 401]
Rate of uptake inhibition (%) (1 µM): 39%

CN(CCOc1ccc(CN2C(=O)C(C(=O)Nc3ccc(C(F)(F)F)cc3-c3cc(C(F)(F)F)ncn3)=C(O)C3(CCC3)N2C)c(F)c1F)C1COC1 [Example 402, 6-(2,3-Difluoro-4-(2-(methyl(oxetan-3-yl)amino)ethoxy)benzyl)-9-hydroxy-5-methyl-7-oxo-N-(4-(trifluoromethyl)-2-(6-(trifluoromethyl)pyrimidin-4-yl)phenyl)-5,6-diazaspiro[3.5]non-8-ene-8-carboxamide]
Rate of uptake inhibition (%) (1 µM): 54%

CN1N(Cc2ccc(OC3COC3)c(F)c2F)C(=O)C(C(=O)Nc2ccc(C(F)(F)F)cc2-c2cc(C(F)(F)F)ncn2)=C(O)C12CCC2 [Example 403, 6-(2,3-Difluoro-4-(oxetan-3-yloxy)benzyl)-9-hydroxy-5-methyl-7-oxo-N-(4-(trifluoromethyl)-2-(6-(trifluoromethyl)pyrimidin-4-yl)phenyl)-5,6-diazaspiro[3.5]non-8-ene-8-carboxamide]
Rate of uptake inhibition (%) (1 µM): 71%

COCCN1CCC[C@H]1COc1ccc(CN2C(=O)C(C(=O)Nc3ccc(C(F)(F)F)cc3-c3cc(C(F)(F)F)ncn3)=C(O)C3(CCC3)N2C)c(F)c1F [Example 404, 6-[[2,3-Difluoro-4-[[(2S)-1-(2-methoxyethyl)pyrrolidin-2-yl]methoxy]phenyl]methyl]-9-hydroxy-5-methyl-7-oxo-N-[4-(trifluoromethyl)-2-[6-(trifluoromethyl)pyrimidin-4-yl]phenyl]-5,6-diazaspiro[3.5]non-8-ene-8-carboxamide]
Rate of uptake inhibition (%) (1 µM): 43%

COCCN1CC[C@@H](Oc2ccc(CN3C(=O)C(C(=O)Nc4ccc(C(F)(F)F)cc4-c4cc(C(F)(F)F)ncn4)=C(O)C4(CCC4)N3C)c(F)c2F)C1 [Example 405, 6-[[2,3-Difluoro-4-[(3R)-1-(2-methoxyethyl)pyrrolidin-3-yl]oxyphenyl]methyl]-9-hydroxy-5-methyl-7-oxo-N-[4-(trifluoromethyl)-2-[6-(trifluoromethyl)pyrimidin-4-yl]phenyl]-5,6-diazaspiro[3.5]non-8-ene-8-carboxamide]
Rate of uptake inhibition (%) (1 µM): 30%

COCCN1CC(Oc2ccc(CN3C(=O)C(C(=O)Nc4ccc(C(F)(F)F)cc4-c4cc(C(F)(F)F)ncn4)=C(O)C4(CCC4)N3C)c(F)c2F)C1 [Example 406]
Rate of uptake inhibition (%) (1 µM): 27%

CN1N(Cc2ccc(OC(C)(C)CN3CCOCC3)c(F)c2F)C(=O)C(C(=O)Nc2ccc(C(F)(F)F)cc2-c2cc(C(F)(F)F)ncn2)=C(O)C12CCC2 [Example 407, 6-[[2,3-Difluoro-4-(2-methyl-1-morpholin-4-ylpropan-2-yl)oxyphenyl]methyl]-9-hydroxy-5-methyl-7-oxo-N-[4-(trifluoromethyl)-2-[6-(trifluoromethyl)pyrimidin-4-yl]phenyl]-5,6-diazaspiro[3.5]non-8-ene-8-carboxamide]
Rate of uptake inhibition (%) (1 µM): 30%

CC(CN1CCOCC1)Oc1ccc(CN2C(=O)C(C(=O)Nc3ccc(C(F)(F)F)cc3-c3cc(C(F)(F)F)ncn3)=C(O)C3(CCC3)N2C)c(F)c1F (stereo not drawn) [Example 408]
Rate of uptake inhibition (%) (1 µM): 47%

CN1CCC(Oc2ccc(CN3C(=O)C(C(=O)Nc4ccc(C(F)(F)F)cc4-c4cc(C(F)(F)F)ncn4)=C(O)C4(CCC4)N3C)c(F)c2F)CC1 [Example 411]
Rate of uptake inhibition (%) (1 µM): 32%

CN(CCOc1ccc(CN2C(=O)C(C(=O)Nc3ccc(C(F)(F)F)cc3-c3cc(C(F)(F)F)ncn3)=C(O)C3(CCCC3)N2C)c(F)c1F)C1COC1 [Example 412, 7-(2,3-Difluoro-4-(2-(methyl(oxetan-3-yl)amino)ethoxy)benzyl)-10-hydroxy-6-methyl-8-oxo-N-(4-(trifluoromethyl)-2-(6-(trifluoromethyl)pyrimidin-4-yl)phenyl)-6,7-diazaspiro[4.5]dec-9-ene-9-carboxamide]
Rate of uptake inhibition (%) (1 µM): 52%

CN1N(Cc2ccc(OCC3CCCO3)c(F)c2F)C(=O)C(C(=O)Nc2ccc(C(F)(F)F)cc2-c2cc(C(F)(F)F)ncn2)=C(O)C12CCCC2 (stereo not drawn) [Example 413]
Rate of uptake inhibition (%) (1 µM): 34%
